# How the values were obtained:
# Format in all cases: in vivo
# [1] = tested on: Panonychus ulmi (OP- and carb.- resistant); experiment: Activity against Panonychus ulmi (OP- and carb.- resistant); conditions: 336 h, 400 ppm spray on apple seedlings, evaluated after 14 days, read-out: percentage reduction in population (% activity)
# Description: Apple seedlings are populated with adult females of Panonychus ulmi. After seven days, the infested plants are sprayed to drip point with an aqueous emulsion comprising 400 ppm of the test compound and grown in the greenhouse. The test is evaluated after 14 days. The percentage reduction in population (% activity) is determined by comparing the number of dead spider mites on the treated plants with those on the untreated plants. […] An activity of over 80% is shown, in particular, by compound Nos. 1.01, 2.01, 2.07, 2.08, 2.10, 2.12 to 2.16, 2.22, 2.23, 2.26, 3.01, 4.01, 4.02, 4.06, 5.01 to 5.03, 5.05, 5.06, 5.08, 5.10, 5.11, 5.15, 5.16 and 5.20 to 5.25.
# Nephotettix cincticeps = experiment: Activity against Nephotettix cincticeps (spray on rice plants); conditions: 504 h, 400 ppm spray on rice plants, larvae in stages 2 and 3, evaluated 21 days later, read-out: percentage reduction in population (% activity)
# Description: Rice plants are treated with a spray mixture prepared with an aqueous emulsion and comprising 400 ppm of the active ingredient. After the spray coating has dried on, the rice plants are populated with leaf hopper larvae in stages 2 and 3. The test is evaluated 21 days later. The percentage reduction in population (% activity) is determined by comparing the number of surviving leaf hoppers on the treated plants with those on the untreated plants.
# Dermanyssus gallinae = experiment: Activity against Dermanyssus gallinae; conditions: 72 h, 10 ppm solution, mites in different development stages, after 3 days
# Description: 2 to 3 ml of a solution comprising 10 ppm of active ingredient and approximately 200 mites in different development stages are placed into a glass container which is open at the top. The container is then sealed with a cottonwool ball, shaken for 10 minutes until the mites are wetted completely, and then briefly turned over so that the remaining test solution can be absorbed by the cottonwool. After 3 days, the mortality of the mites is determined by counting the dead individuals; it is given as a percentage.
# Nilaparvata lugens [2] = experiment: Activity against Nilaparvata lugens (spray on rice plants); conditions: 504 h, 400 ppm spray on rice plants, larvae in stages 2 and 3, evaluated after 21 days, read-out: percentage reduction in population (% activity)
# Description: Rice plants are treated with a spray mixture prepared with an aqueous emulsion and comprising 400 ppm of the active ingredient. After the spray coating has dried on, the rice plants are populated with plant hopper larvae in stages 2 and 3. The test is evaluated after 21 days. The percentage reduction in population (% activity) is determined by comparing the number of surviving plant hoppers on the treated plants with the number of plant hoppers on the untreated plants. […] An activity of over 80% is shown, in particular, by compound Nos. 1.01, 2.01 to 2.03, 2.07, 2.08, 2.10 to 2.16, 2.20, 2.22, 2.23, 2.26, 3.01, 4.01 to 4.06, 4.20, 5.01 to 5.06, 5.08, 5.10 to 5.12, 5.15, 5.16 and 5.20 to 5.25.
# adult Anthonomus grandis = experiment: Activity against adult Anthonomus grandis; conditions: 72 h, 400 ppm spray on young cotton plants, adults, evaluated after 3 days, read-out: percentage reduction in population or in feeding damage (% activity)
# Description: (§1) Young cotton plants are sprayed with a spray mixture prepared with an aqueous emulsion and comprising 400 ppm of the active ingredient. After the spray coating has dried on, the cotton plants are populated with 10 adult Anthonomus grandis and placed into a plastic container. The test is evaluated after 3 days. The percentage reduction in population, or the percentage reduction in feeding damage (% activity), is determined by comparing the number of dead beetles and the feeding damage on the treated plants with those on the untreated plants.
# Tetranychus urticae = experiment: Activity against Tetranychus urticae; conditions: 144 h, 400 ppm spray on young bean plants, mixed population, 6 days at 25° C, read-out: percentage reduction in population (% activity)
# Description: Young bean plants are populated with a mixed population of Tetranychus urticae and, after 1 day, sprayed with a spray mixture prepared with an aqueous emulsion and comprising 400 ppm of the active ingredient. The plants are subsequently incubated for 6 days at 25° C and then evaluated. The percentage reduction in population (% activity) is determined by comparing the number of dead eggs, larvae and adults on the treated plants with those on the untreated ones.
# Heliothis virescens = experiment: Ovicidal/larvicidal activity on Heliothis virescens; conditions: 192 h, 400 ppm spray on eggs deposited on cotton, evaluated after 8 days, read-out: % reduction in population (hatching percentage of eggs and survival rate of caterpillars)
# Description: Heliothis eggs which have been deposited on cotton are sprayed with a spray mixture prepared with an aqueous emulsion and comprising 400 ppm of the active ingredient. After 8 days, the hatching percentage of the eggs and the survival rate of the caterpillars are evaluated by comparing them with untreated control batches (% reduction in population).
# Nilaparvata lugens [3] = experiment: Systemic activity against Nilaparvata lugens; conditions: 144 h, pots with rice plants in 400 ppm aqueous emulsion solution, larvae in stages 2 and 3, evaluated 6 days later, read-out: percentage reduction in population (% activity)
# Description: Pots containing rice plants are placed into an aqueous emulsion solution comprising 400 ppm of the active ingredient. The rice plants are subsequently populated with larvae in stages 2 and 3. The test is evaluated 6 days later. The percentage reduction in population (% activity) is determined by comparing the numbers of plant hoppers on the treated plants with those on the untreated plants.
# Ctenocephalides felis = experiment: Activity against Ctenocephalides felis; conditions: 504 h, 100 ppm in flea larvae nutrient medium, flea eggs, checked after 21 days
# Description: 20 to 25 flea eggs are placed into a horizontally positioned 50 ml tissue culture flask into which 15 g of flea larvae nutrient medium comprising 100 ppm of the active ingredient to be tested have previously been introduced. The test flasks are incubated in an incubator at 26° to 27° C. and an atmospheric humidity of 60-70%. After 21 days, the flasks are checked for the presence of adult fleas, unhatched pupae and larvae.
# [4] = tested on: Heliothis virescens caterpillars; experiment: Activity against Heliothis virescens caterpillars; conditions: 144 h, 400 ppm spray on young soybean plants, first larval stage, evaluated after 6 days, read-out: percentage reduction in population or in feeding damage (% activity)
# Description: as §1, with “soybean” for “cotton”, “Heliothis virescens in the first larval stage” for “adult Anthonomus grandis”, “6” for “3”, “caterpillars” for “beetles”
# Bemisia tabaci = experiment: Activity against Bemisia tabaci; conditions: 336 h, 400 ppm spray on dwarf bean plants with nymphs, evaluated 14 days after application, read-out: activity (hatching percentages vs untreated control)
# Description: Dwarf bean plants are placed into gauze cages and populated with adult Bemisia tabaci specimens (white fly). After oviposition has taken place, all adults are removed and, 10 days later, the plants with the nymphs located thereon are treated with a spray mixture of the active ingredients to be tested (concentration 400 ppm), which has been prepared with an aqueous emulsion. The test is evaluated for hatching percentages 14 days after the active ingredient has been applied by comparison with the untreated control batches. […] An activity of over 80% is shown, in particular, by compound Nos. 1.01, 2.01 to 2.08, 2.10 to 2.16, 2.22, 2.23, 3.01, 4.01, 4.02, 4.05, 4.06, 5.02, 5.03, 5.06 to 5.08, 5.10, 5.11, 5.20, 5.21 and 6.09.
smiles,measurement,setting,value
O=C(CCCC=C(F)F)OCCOc1ccc(Oc2ccccc2)cc1 [Compound 2.01],activity at 400 ppm,[1],> 80%
same,activity at 400 ppm,Nephotettix cincticeps,> 80%
O=C(CCCC=C(F)F)OCCOc1ccc(Sc2ccccc2)cc1 [Compound 2.02],activity at 400 ppm,Nephotettix cincticeps,> 80%
O=C(CCCC=C(F)F)OCCOc1ccc(Oc2ccccn2)cc1 [Compound 2.03],activity at 400 ppm,Nephotettix cincticeps,> 80%
CC(COC(=O)CCCC=C(F)F)Oc1ccc(Oc2ccccc2)cc1 (stereo not drawn) [Compound 2.06],activity at 400 ppm,Nephotettix cincticeps,> 80%
same,mortality at 10 ppm,Dermanyssus gallinae,> 80%
O=C(CCCC=C(F)F)OCCOc1ccc(OCc2ccc(F)cc2)cc1 [Compound 2.07],activity at 400 ppm,[1],> 80%
same,activity at 400 ppm,Nilaparvata lugens [2],> 80%
same,activity at 400 ppm,Nephotettix cincticeps,> 80%
same,activity at 400 ppm,adult Anthonomus grandis,> 80%
O=C(CCCC=C(F)F)OCCOc1ccc(OCc2ccc(Cl)cc2)cc1 [Compound 2.08],activity at 400 ppm,[1],> 80%
same,activity at 400 ppm,Nilaparvata lugens [2],> 80%
same,activity at 400 ppm,adult Anthonomus grandis,> 80%
N#Cc1ccc(COc2ccc(OCCOC(=O)CCCC=C(F)F)cc2)cc1 [Compound 2.10],activity at 400 ppm,Tetranychus urticae,> 80%
same,activity at 400 ppm,[1],> 80%
CC(OC(=O)CCCC=C(F)F)C(C)Oc1ccc(Oc2ccccc2)cc1 (stereo not drawn) [Compound 2.13],mortality at 10 ppm,Dermanyssus gallinae,> 80%
O=C(CCCC=C(F)F)OCCOc1ccc(OCc2cccc([N+](=O)[O-])c2)cc1 [Compound 2.15],pest or weed control at 400 ppm,Heliothis virescens,> 80%
Cc1ccc(COc2ccc(OCCOC(=O)CCCC=C(F)F)cc2)cc1C [Compound 2.16],pest or weed control at 400 ppm,Heliothis virescens,> 80%
O=C(CCCC=C(F)F)NCCOc1ccc(Oc2ccccc2)cc1 [Compound 2.20],activity at 400 ppm,Nilaparvata lugens [3],> 80%
same,activity at 400 ppm,Nilaparvata lugens [2],> 80%
CC(C)(C)c1ccc(COc2ccc(OCCOC(=O)CCCC=C(F)F)cc2)cc1 [Compound 2.26],activity at 400 ppm,Nilaparvata lugens [3],> 80%
same,activity at 400 ppm,Tetranychus urticae,> 80%
same,pest or weed control at 100 ppm,Ctenocephalides felis,> 80%
same,pest or weed control at 400 ppm,Heliothis virescens,> 80%
same,activity at 400 ppm,[4],> 80%
same,activity at 400 ppm,[1],> 80%
same,activity at 400 ppm,Nilaparvata lugens [2],> 80%
same,activity at 400 ppm,Nephotettix cincticeps,> 80%
O=C(CCCCCCCC=C(F)F)OCCOc1ccc(Oc2ccccn2)cc1 [Compound 4.03],pest or weed control at 100 ppm,Ctenocephalides felis,> 80%
Cc1nsc(Oc2ccc(OCCOC(=O)CCCCCCCC=C(F)F)cc2)n1 [Compound 4.04],pest or weed control at 100 ppm,Ctenocephalides felis,> 80%
same,mortality at 10 ppm,Dermanyssus gallinae,> 80%
O=C(CCCCCCCC=C(F)F)OCCOc1ccc(OCc2ccccc2)cc1 [Compound 4.05],activity at 400 ppm,[4],> 80%
same,pest or weed control at 400 ppm,Bemisia tabaci,> 80%
same,activity at 400 ppm,Nephotettix cincticeps,> 80%
same,mortality at 10 ppm,Dermanyssus gallinae,> 80%
O=C(CCCCCCCC=C(F)F)NCCOc1ccc(Oc2ccccc2)cc1 [Compound 4.20],activity at 400 ppm,Nilaparvata lugens [3],> 80%
same,activity at 400 ppm,Tetranychus urticae,> 80%
same,pest or weed control at 400 ppm,Heliothis virescens,> 80%
same,activity at 400 ppm,[4],> 80%
same,activity at 400 ppm,Nilaparvata lugens [2],> 80%
O=C(CCCCCCCCCC=C(F)F)OCCOc1ccc(Oc2ccccn2)cc1 [Compound 5.03],pest or weed control at 400 ppm,Bemisia tabaci,> 80%
CC(COC(=O)CCCCCCCCCC=C(F)F)Oc1ccc(Oc2ccccc2)cc1 (stereo not drawn) [Compound 5.06],activity at 400 ppm,[1],> 80%
O=C(CCCCCCCCCC=C(F)F)OCCOc1ccc(OCc2ccc(Cl)cc2)cc1 [Compound 5.08],activity at 400 ppm,Tetranychus urticae,> 80%
same,pest or weed control at 100 ppm,Ctenocephalides felis,> 80%
same,activity at 400 ppm,[1],> 80%
same,activity at 400 ppm,Nilaparvata lugens [2],> 80%
N#Cc1ccc(COc2ccc(OCCOC(=O)CCCCCCCCCC=C(F)F)cc2)cc1 [Compound 5.10],activity at 400 ppm,[1],> 80%
same,pest or weed control at 400 ppm,Bemisia tabaci,> 80%
same,activity at 400 ppm,adult Anthonomus grandis,> 80%
Cc1ccc(COc2ccc(OCCOC(=O)CCCCCCCCCC=C(F)F)cc2)cc1 [Compound 5.11],activity at 400 ppm,[1],> 80%
same,pest or weed control at 400 ppm,Bemisia tabaci,> 80%
O=C(CCCCCCCCCC=C(F)F)OCCOc1ccc(OCc2cccc([N+](=O)[O-])c2)cc1 [Compound 5.15],activity at 400 ppm,Nilaparvata lugens [3],> 80%
same,activity at 400 ppm,Tetranychus urticae,> 80%
same,pest or weed control at 400 ppm,Heliothis virescens,> 80%
same,activity at 400 ppm,[4],> 80%
same,activity at 400 ppm,[1],> 80%
same,activity at 400 ppm,Nilaparvata lugens [2],> 80%
same,activity at 400 ppm,Nephotettix cincticeps,> 80%
Cc1ccc(COc2ccc(OCCOC(=O)CCCCCCCCCC=C(F)F)cc2)cc1C [Compound 5.16],activity at 400 ppm,Nilaparvata lugens [3],> 80%
same,activity at 400 ppm,Tetranychus urticae,> 80%
same,pest or weed control at 400 ppm,Heliothis virescens,> 80%
same,activity at 400 ppm,[4],> 80%
same,activity at 400 ppm,[1],> 80%
same,activity at 400 ppm,Nilaparvata lugens [2],> 80%
same,activity at 400 ppm,Nephotettix cincticeps,> 80%
same,activity at 400 ppm,adult Anthonomus grandis,> 80%
O=C(CCCCCCCCCC=C(F)F)OCCOc1ccc(OCc2cccc(Cl)c2)cc1 [Compound 5.20],pest or weed control at 400 ppm,Bemisia tabaci,> 80%
same,activity at 400 ppm,Nephotettix cincticeps,> 80%
O=C(CCCCCCCCCC=C(F)F)NCCOc1ccc(OCc2ccc(C(F)(F)F)cn2)cc1 [Compound 5.21],pest or weed control at 400 ppm,Bemisia tabaci,> 80%
same,mortality at 10 ppm,Dermanyssus gallinae,> 80%
O=C(CCCCCCCCCC=C(F)F)OCCOc1ccc(OCc2ncc(C(F)(F)F)cc2Cl)cc1 [Compound 5.22],activity at 400 ppm,Nephotettix cincticeps,> 80%
CC(COC(=O)CCCCCCCCCC=C(F)F)Oc1ccc(Sc2ccccc2)cc1 (stereo not drawn) [Compound 5.25],activity at 400 ppm,[4],> 80%
same,activity at 400 ppm,Nephotettix cincticeps,> 80%
CC(CCCCCCCCCC(=O)OCCOc1ccc(Oc2ccccc2)cc1)=C(F)Cl [Compound 6.09],pest or weed control at 400 ppm,Heliothis virescens,> 80%
same,pest or weed control at 400 ppm,Bemisia tabaci,> 80%

# Source: patent US5481013A, “Carboxylic acid derivatives” (Ciba-Geigy Corporation, priority 1992, dated 1996)
